Experimental data published in US7566737B2 (Genfit, priority 2002, dated 2009).

How the values were obtained:
C57Black/6 mice = assay: Prophylactic neuroprotection, cerebral ischemia-reperfusion model (middle cerebral artery occlusion); assay type: in vivo, mouse; details: gavage 200 mg/kg/day for 14 days before occlusion; 60 minutes occlusion, 24 hours reperfusion; untreated 37
Protocol: C57 black/6 mice (wild-type) were used for this experiment. Animals were maintained on a 12 hour light-dark cycle at a temperature of 20° C.±3° C. Water and food were available ad libitum. Food intake and weight gain were recorded all along the experiment. The inventive compounds (200 mg/kg/day) or the vehicle (0.5% carboxycellulose (CMC)) were administered to the animals by gavage, for 14 days before ischemia induction in the middle cerebral artery.
Animals were anesthetized by intraperitoneal injection of 300 mg/kg chloral hydrate. A rectal probe was inserted and body temperature was maintained at 37° C.±0.5° C. Blood pressure was monitored throughout the experiment. Under a surgical microscope, the right carotid artery was exposed by a median incision in the neck. […]
(§1) Twenty-four hours after reperfusion, animals previously treated or not with the compounds were euthanized by pentobarbital overdose. […] Areas were measured and the volume of the infarct and the two hemispheres was calculated by the following formula: (corrected infarct volume=infarct volume−(volume of right hemisphere−volume of left hemisphere)) to compensate for cerebral oedema. […]

C57 black/6 mice = assay: Acute neuroprotection, cerebral ischemia-reperfusion model (middle cerebral artery occlusion); assay type: in vivo, mouse; details: 200 mg/kg/day for 72 hours after occlusion; untreated 41
Protocol: Animals such as those described previously were used for this experiment. Animals were anesthetized by intraperitoneal injection of 300 mg/kg chloral hydrate. A rectal probe was inserted and body temperature was maintained at 37° C.±0.5° C. Blood pressure was monitored throughout the experiment. Under a surgical microscope, the right carotid artery was exposed by a median incision in the neck. The pterygopalatine artery was ligated at its origin and an arteriotomy was fashioned in the external carotid artery so as to insert a nylon monofilament, which was gently advanced to the common carotid artery and then into the internal carotid artery so as to occlude the origin of the middle cerebral artery. The filament was withdrawn one hour later to allow reperfusion.
Animals first subjected to ischemia-reperfusion were treated with the inventive compounds by the oral or systemic route one or more times after reperfusion.
as §1, with “Seventy-two” for “Twenty-four”, “overdose. Brains were rapidly frozen and sliced. Sections were stained with cresyl violet.” for “overdose.”

HaCat cells = assay: Antioxidant properties on cell cultures (carboxy-H2DCFDA fluorescence, AAPH stress), keratinocytes; assay type: cell-based, human; details: 25 μM for 24 h, AAPH 750 μM
Protocol: (§2) The reduction in the intensity of the emitted fluorescence signal was determined in cells treated with the compounds in the following manner.
(§3) Prior to stress the cells with an oxidative agent such as AAPH (CAS number 2997-92-4), cells are incubated with compounds of interest at 25 μM for 24 h. Then the culture medium is discarded and cells are rinsed two times with PBS. Cells are then incubated 30 min at 37° C. with a cell-permeant indicator for reactive oxygen species that is nonfluorescent until the acetate groups are removed by intracellular esterases and oxidation occurs within the cell 5-(and-6)-carboxy-2′,7′-dichlorodihydrofluorescein diacetate (carboxy-H2DCFDA). The probes are prepared in PBS and incubated at the final concentration of 25 μM. After the incubation with the probe, cells are rinsed and incubated another 30 min with the oxidative solution containing AAPH at 750 μM in culture medium without phenol red and serum.
(§4) The fluorescence is then measured with a fluorimeter with the following wavelength, […].
(§5) Two different cell types have been tested with the inventive compounds. Human normal primary fibroblasts and HaCat cells which are a human keratinocyte cell line.

[1] = tested on: Human normal primary fibroblasts; assay: Antioxidant properties on cell cultures (carboxy-H2DCFDA fluorescence, AAPH stress), fibroblasts; assay type: cell-based; details: 25 μM for 24 h, AAPH 750 μM
Protocol: as §2, §3, §4, §5

human PPARδ = molecular target: T1, human PPARδ (Homo sapiens, UniProt Q03181); assay: PPARδ/Gal4 transactivation system; assay type: cell-based; details: PPAR/Gal4 transactivation system
T1 construct: expressed in transfected cells; host or cells: RK13 or COS-7
T1 sequence (Q03181 211-439 limits assumed): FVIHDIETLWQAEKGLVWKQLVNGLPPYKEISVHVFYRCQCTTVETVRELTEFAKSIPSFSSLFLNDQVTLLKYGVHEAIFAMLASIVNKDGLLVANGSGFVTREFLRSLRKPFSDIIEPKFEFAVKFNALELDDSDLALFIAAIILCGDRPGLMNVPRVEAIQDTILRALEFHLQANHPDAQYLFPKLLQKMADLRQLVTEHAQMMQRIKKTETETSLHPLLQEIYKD
Protocol: (§6) PPAR activation was tested in vitro in RK13 or COS-7 fibroblast cell lines by measuring the transcriptional activity of chimeras composed of the DNA binding domain of the yeast Gal4 transcription factor and the ligand binding domain of the different PPARs. These latter results were then confirmed in cell lines according to the following protocols.
(§7) Culture protocols: RK13 were from ECACC (Porton Down, UK) and were grown in DMEM medium supplemented with 10% (V/V) fetal calf serum, 100 U/ml penicillin (Gibco, Paisley, UK) and 2 mM L-glutamine (Gibco, Paisley, UK). COS-7 cells were from ATCC and were grown in DMEM medium supplemented with 10% (V/V) fetal calf serum, 1% penicillin/streptomycine (Biochrom, AG), 1% of amino acids (Gibco) and 1% sodium pyruvate (Gibco).
(§8) The culture medium was changed every two days. Cells were kept at 37° C. in a humidified 95% air/5% CO2 atmosphere.
(§9) Description of plasmids used for transfection: The plasmids Gal4(RE)_TkpGL3, pGal4-hPPARα, pGal4-hPPARγ, pGal4-hPPARδ and pGal4-φ have been described in the literature (Raspe E et al., 1999). The pGal4-hPPARα, pGal4-hPPARγ and pGal4-hPPARδ constructs were obtained by cloning into the pGal4-φ vector PCR-amplified DNA fragments corresponding to the DEF domains of the human PPARs nuclear receptors.
(§10) Transfection of RK13: RK13 cells were seeded in 24-well culture dishes at 5×10^4 cells/well and transfected for 2 hours with the reporter plasmid Gal4(RE)_TkpGL3 (50 ng/well), the expression vectors pGal4-φ, pGal4-hPPARα, pGal4-hPPARγ and pGal-hPPARδ (100 ng/well) and the transfection efficiency control vector pRL-CMV (1 ng/well) according to the previously described protocol (Raspe E, Madsen L, Lefebvre A M, Leitersdorf I, Gelman L, Peinado-Onsurbe J, Dallongeville J, Fruchart J C, Berge R and Staels B, 1999), then incubated for 36 hours with the test compounds. RK13 cells were incubated with the different compounds at concentrations of 10, 30 and 100 μM or 1, 10 and 100 μM for 24 hours. At the end of the experiment, the cells were lysed (Gibco, Paisley, UK) and luciferase activity was determined with a Dual-Luciferase™ Reporter Assay System kit (Promega, Madison, Wis., USA) according to the supplier's instructions. The protein content of the cell extracts was then measured with the Bio-Rad Protein Assay (Bio-Rad, Munich, Germany) as directed by the supplier.
Transfection of COS7: Cells in suspension are transfected, in the presence of 10% (V/V) fetal calf serum, with 150 ng of DNA per well with a pGal4-PPAR/Gal4(RE)_TkpGL3 ratio of 1/10. […] At the end of the activation period, cells are lysed and luciferase activity is determined, using the Steady Glow Luciferase Kit (Promega), according to the supplier's instructions.

human PPARα = molecular target: T2, human PPARα (Homo sapiens, UniProt Q07869); assay: PPARα/Gal4 transactivation system; assay type: cell-based; details: PPAR/Gal4 transactivation system
T2 construct: expressed in transfected cells; host or cells: RK13 or COS-7
T2 sequence (Q07869 239-466 limits assumed): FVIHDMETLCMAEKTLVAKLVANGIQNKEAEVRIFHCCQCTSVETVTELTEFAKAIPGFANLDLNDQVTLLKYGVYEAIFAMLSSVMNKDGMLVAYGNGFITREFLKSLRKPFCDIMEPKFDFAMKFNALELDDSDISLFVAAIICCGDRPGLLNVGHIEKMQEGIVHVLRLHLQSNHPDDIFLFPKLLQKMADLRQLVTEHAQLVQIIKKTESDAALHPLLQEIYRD
Protocol: as §6, §7, §8, §9, §10
(§11) Transfection of COS7: Cells in suspension are transfected, in the presence of 10% (V/V) fetal calf serum, with 150 ng of DNA per well with a pGal4-PPAR/Gal4(RE)_TkpGL3 ratio of 1/10. Cells are then seeded in 96 well plates (4×10^4 cells/well) and incubated for 24 hours at 37° C. Activation with compounds is performed on 24 hours at 37° C. in culture medium without serum. At the end of the activation period, cells are lysed and luciferase activity is determined, using the Steady Glow Luciferase Kit (Promega), according to the supplier's instructions.

[2] = tested on: C57BLKS-m Lepr^db transgenic mice; assay: Antidiabetic effect on insulin and glucose; assay type: in vivo, mouse; details: 0.1 to 30 mg/Kg/day for 21 days
Protocol: Genetically modified C57BLKS-m Lepr^db mice were used to asses antidiabetic effect of the inventive compounds. Mice were randomized according to their plasma lipid, glucose and insulin contents. Treatments were administered once daily by gavage (10 ml/kg) for the duration of the treatment. For oral administrations, the drugs were suspended in CMC 1% or CMC 1%+Tween 80 0.1%. The plasma glucose was measured using a kit reagent from Biomerieux (France). The plasma insulin was measured using a solid phase two-site enzyme immunoassay from Crystal Chem Inc. (USA). The results are exemplified in FIGS. 5-1 to 5-4 which illustrate the activity of inventive compounds 29 and 62 on glucose and insulin.

[3] = tested on: hApoE2 Knock-in transgenic mice; assay: Effects on triglycerides and cholesterol metabolism in vivo; design: species or system mouse
Protocol: Treatment of animals: hApoE2 knock-in transgenic mice were kept on a 12-hour light/dark cycle at a constant temperature of 20±3° C. After a 1 week acclimation, mice were separated in groups of 6 animals selected such that the distribution of their body weight and plasmatic lipid levels determined before the experiment were uniform. The test compounds were suspended in carboxymethylcellulose and administered by intragastric gavage at the indicated doses, once a day for 7 or 8 days. Animals had access to food and water ad libitum. At the end of the experiment the animals were weighed and sacrificed under anesthesia. Blood was collected on EDTA. Plasma was prepared by centrifugation at 3000 rpm for 20 minutes. Organs were harvested, frozen in liquid nitrogen and stored at −80° C. for subsequent analysis.
Measurement of serum lipids: Serum lipid concentrations (total cholesterol and triglycerides) were determined by a colorimetric assay (Boehringer, Mannheim, Germany) according to the supplier's instructions.

human PPARγ = molecular target: T3, human PPARγ (Homo sapiens, UniProt P37231); assay: PPARγ/Gal4 transactivation system; assay type: cell-based; details: PPAR/Gal4 transactivation system
T3 construct: expressed in transfected cells; host or cells: RK13 or COS-7
T3 sequence (P37231 238-503 limits assumed): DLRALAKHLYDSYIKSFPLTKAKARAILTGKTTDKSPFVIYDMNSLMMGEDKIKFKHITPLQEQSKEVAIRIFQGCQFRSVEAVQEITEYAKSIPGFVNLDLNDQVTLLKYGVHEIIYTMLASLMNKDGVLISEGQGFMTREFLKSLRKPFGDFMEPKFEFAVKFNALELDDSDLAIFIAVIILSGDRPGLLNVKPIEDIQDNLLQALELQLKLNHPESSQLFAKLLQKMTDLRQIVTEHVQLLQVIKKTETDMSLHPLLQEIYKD
Protocol: as §6, §7, §8, §9, §10, §11

[4] = 1, 3, 10 and 30 mg/kg/day for 14 days

| concentration at which maximal activity is observed (human PPARδ) | concentration at which maximal activity is observed (human PPARα) | concentration at which maximal activity is observed (human PPARγ) | Compound | infarct volume (C57Black/6 mice) | total corrected infarct volume (C57 black/6 mice) | antioxidant properties on cell cultures (in words) (HaCat cells) | antioxidant properties on cell cultures (in words) [1] | plasma glucose level [2] | plasma insulin level [2] | plasma cholesterol ([3]; 50 mg/kg/day for 7 or 8 days, FIGS. 4-13, 4-15, 4-17, 4-19) | plasma triglycerides ([3]; 50 mg/kg/day for 7 or 8 days, FIGS. 4-14, 4-16, 4-18, 4-20) | plasma cholesterol [3, 4] | plasma triglycerides [3, 4] |
| --- | --- | --- | --- | --- | --- | --- | --- | --- | --- | --- | --- | --- | --- |
| – | – | – | Cc1cc(/C=C/C(=O)c2ccc(Cl)cc2)cc(C)c1OC(C)(C)C(=O)OC(C)C [Compound 15, 1-[4-chlorophenyl]-3-[3,5-dimethyl-4-isopropyloxycarbonyldimethylmethyloxyphenyl]prop-2-en-1-one] | 32 mm^3 | 29 mm^3 | – | – | – | – | – | – | – | – |
| – | – | – | CC(C)OC(=O)C(C)(C)Oc1ccc(/C=C/C(=O)c2ccccc2O)cc1 [Compound 42] | 24 mm^3 | 29 mm^3 | – | – | – | – | – | – | – | – |
| 3 µM | 0.3 µM | 10 µM | Cc1cc(/C=C/C(=O)c2ccc(OC(F)(F)F)cc2)cc(C)c1OC(C)(C)C(=O)O [Compound 62] | – | – | antioxidant properties | antioxidant properties | decrease | decrease | decrease | decrease | decrease | decrease |
